Assay results taken from patent US20110071108A1, “Beta-Cyclodextrin Derivatives as Antibacterial Agents” (Pinnacle Pharmaceuticals, Inc., priority 2005, published 2011).

Key:
Pseudomonas aeruginosa = assay: Bacterial panel testing, MIC by broth microdilution; format: cell-based; settings: 20-24 hours growth
How it was run: (§1)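 Twofold broth microdilution: compound, prepared at 10 μg/ml in DMSO, serially diluted left to right in inoculated Mueller-Hinton or Brain Heart infusion media. Inoculum from 2-4 h cultures at 37° C, standardized to McFarland density. Plates sealed and grown 20-24 h, then clear wells scored.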

Salmonella choleraesuis = assay: as above; format: cell-based; settings: 20-24 hours growth
How it was run: as §1

Enterococcus faecium = assay: as above; format: cell-based; settings: 20-24 hours growth
How it was run: as §1

Eschericia coli = assay: as above; format: cell-based; settings: 20-24 hours growth
How it was run: as §1

Staphylococcus aureus = assay: as above; format: cell-based; settings: 20-24 hours growth
How it was run: as §1

[1] = system: P. aeruginosa (susceptible clinical isolate); assay: Potentiation of clinically used antibiotics, susceptible clinical isolate; format: cell-based, Pseudomonas aeruginosa; settings: Table 3; antibiotic alone or mixed with PP compound
Procedure: (§2) One to three colonies of bacteria were picked from an Mueller-Hinton or Brain Heart infusion agar plate (depending on the bacterial strain) and transferred to 3 ml Mueller-Hinton broth or Brain Heart infusion media (depending on the bacterial strain). Bacteria were allowed to grow for 2-4 hours in an incubator at 37° C. Bacteria-inoculated media were dispersed in 0.9% saline to match McFarland standard density. 100 μl standardized inoculation was added to 20 ml media (dilution 1). 10 μl of the new dilution was added to 990 μl media and mixed (dilution 2). 10 μl of dilution 2 was spread on an agar plate and allowed to grow overnight. Colonies were then […].
(§3) Test compound was diluted to 10 μg/ml in dimethylsulfoxide. Four μl of Rifampicin antibiotic was loaded into row H, column 2.
(§4) All wells were then filled with 100 μl of inoculated media (dilution 1 from Example 1). A further 100 μl of the inoculated media was then added to column 2 and the contents are pipetted to thoroughly mix the contents. A full 100 μl was then transferred from column 2 and mixed into column 3. This process was continued from left to right until columns 2-12 were serially diluted, and the final draw from column 12 was discarded. The plates were covered with 3M sealing tape (plates containing Enterococcus faecium were sealed with Air Pore sealing tape) and allowed to grow for 20-24 hours. Cytotoxic wells (clear wells) are then scored and the potency of the compound was determined.
Numerous pathogenic bacteria have developed a resistance to many clinically used antibiotics. Following the protocols described herein, various compounds were mixed with clinically used antibiotics to treat Pseudomonas aeruginosa (P. aeruginosa).

[2] = system: Pseudomonas aeruginosa clinical isolate, multi-drug resistant; assay: Potentiation of clinically used antibiotics, multi-drug resistant clinical isolate; format: cell-based; settings: Table 4, antibiotic alone or mixed with PP compound
Procedure: as §2, §3
as §4, with “The plates were covered with 3M sealing tape (plates containing Enterococcus faecium were sealed with Air Pore sealing tape) and allowed to grow for 20-24 hours.” left out, “determined. […]” for “determined.”

Row | MIC [2] [µg/mL] | SMILES | MIC PA (Pseudomonas aeruginosa) [µg/mL] | MIC SC (Salmonella choleraesuis) [µg/mL] | MIC EF (Enterococcus faecium) [µg/mL] | MIC EC (Eschericia coli) [µg/mL] | MIC SA (Staphylococcus aureus) [µg/mL] | Mammalian Cytotoxicity IC50 (Lungs cancer cells A549) [µg/mL] | Activity of known antibiotics alone or in combination with compounds of the invention, P. aeruginosa (susceptible clinical isolate) [1]
1 | – | O=C(NCC1OC2OC3C(CNC(=O)C4CCCN4)OC(OC4C(CNC(=O)C5CCCN5)OC(OC5C(CNC(=O)C6CCCN6)OC(OC6C(CNC(=O)C7CCCN7)OC(OC7C(CNC(=O)C8CCCN8)OC(OC8C(CNC(=O)C9CCCN9)OC(OC1C(O)C2O)C(O)C8O)C(O)C7O)C(O)C6O)C(O)C5O)C(O)C4O)C(O)C3O)C1CCCN1.O=C(O)C(F)(F)F.O=C(O)C(F)(F)F.O=C(O)C(F)(F)F.O=C(O)C(F)(F)F.O=C(O)C(F)(F)F.O=C(O)C(F)(F)F.O=C(O)C(F)(F)F (stereo not shown) | >200 | >200 | >200 | >200 | >200 | 524 | –
2 | – | Cl.Cl.Cl.Cl.Cl.Cl.Cl.Cl.Cl.Cl.Cl.Cl.Cl.Cl.NCCCC[C@@H](N)C(=O)NC[C@H]1O[C@@H]2O[C@H]3[C@H](O)[C@@H](O)[C@@H](O[C@H]4[C@H](O)[C@@H](O)[C@@H](O[C@H]5[C@H](O)[C@@H](O)[C@@H](O[C@H]6[C@H](O)[C@@H](O)[C@@H](O[C@H]7[C@H](O)[C@@H](O)[C@@H](O[C@H]8[C@H](O)[C@@H](O)[C@@H](O[C@H]1[C@H](O)[C@H]2O)O[C@@H]8CNC(=O)[C@H](N)CCCCN)O[C@@H]7CNC(=O)[C@H](N)CCCCN)O[C@@H]6CNC(=O)[C@H](N)CCCCN)O[C@@H]5CNC(=O)[C@H](N)CCCCN)O[C@@H]4CNC(=O)[C@H](N)CCCCN)O[C@@H]3CNC(=O)[C@H](N)CCCCN | >200 | >200 | >200 | >200 | >200 | 2990 | –
3 | – | I.I.I.I.I.I.I.N=C(N)SCC1OC2OC3C(CSC(=N)N)OC(OC4C(CSC(=N)N)OC(OC5C(CSC(=N)N)OC(OC6C(CSC(=N)N)OC(OC7C(CSC(=N)N)OC(OC8C(CSC(=N)N)OC(OC1C(O)C2O)C(O)C8O)C(O)C7O)C(O)C6O)C(O)C5O)C(O)C4O)C(O)C3O (stereo not shown) | >200 | >200 | >200 | >200 | >200 | 480 | –
4 | – | Cl.Cl.Cl.Cl.Cl.Cl.NCCCCSCC1OC2OC3C(CSCCCCN)OC(OC4C(CSCCCCN)OC(OC5C(CSCCCCN)OC(OC6C(CSCCCCN)OC(OC7C(CSCCCCN)OC(OC1C(O)C2O)C(O)C7O)C(O)C6O)C(O)C5O)C(O)C4O)C(O)C3O (stereo not shown) | >200 | >200 | >200 | >200 | >200 | 589 | –
5 | – | COc1cccc(OC)c1C(=O)N[C@@H]1C(=O)N2[C@@H]1SC(C)(C)[C@@H]2C(=O)O [Methicillin] | – | – | – | – | – | – | >100
6 | > 100 | CCn1cc(C(=O)O)c(=O)c2cc(F)c(N3CCNCC3)cc21 [Norfloxacin] | – | – | – | – | – | – | –
7 | – | CC1(C)S[C@@H]2[C@H](NC(=O)COc3ccccc3)C(=O)N2[C@H]1C(=O)O [Penicillin V] | – | – | – | – | – | – | >100
8 | – | CN[C@H](CC(C)C)C(=O)N[C@H]1C(=O)N[C@@H](CC(N)=O)C(=O)N[C@H]2C(=O)N[C@H]3C(=O)N[C@H](C(=O)N[C@H](C(=O)O)c4cc(O)cc(O)c4-c4cc3ccc4O)[C@H](O)c3ccc(c(Cl)c3)Oc3cc2cc(c3O[C@@H]2O[C@H](CO)[C@@H](O)[C@H](O)[C@H]2O[C@H]2C[C@](C)(N)[C@H](O)[C@H](C)O2)Oc2ccc(cc2Cl)[C@H]1O [Vancomycin] | – | – | – | – | – | – | >100
